Measured values as given in the NIST ThermoML archive (doi:10.1016/j.fluid.2014.10.031).
± gives the expanded uncertainty stated by the source.

Legend:
[1] = Molar enthalpy of transition or fusion; conditions: Crystal; DSC
[2] = Crystal; DTA

Molar enthalpy of transition or fusion [1]: 10.9 ± 0.478 kcal/mol
Normal melting temperature [2]: 316.37 ± 24 °C
Structure (SMILES): COc1cc(O)c2c(c1)oc(=O)c1c3cc(O)c(O)cc3oc21 [wedelolactone]
